Measurements published in publication PMC8119466, “A screen of FDA-approved drugs identifies inhibitors of protein tyrosine phosphatase 4A3 (PTP4A3 or PRL-3)” (Scientific Reports, 2021).
Structures can show the parent of a compound that is named as a salt. Starred links: 1 amine or outer side, 2 acyl side, 3 side chain; linkers in the order of their positions; H or OH if unused. Positions of bridges follow the written chain, without caps; N, C: chain ends. Non-standard residues stand in square brackets, D forms with d. Residues, ends and D or L forms follow the SMILES beside them. *: point of attachment. pTerphenylCO(4''-OnC5H11) = CCCCCOc1ccc(-c2ccc(-c3ccc(C(=O)*)cc3)cc2)cc1; Orn(4R-OH,5R-OH) = O=C([C@H](C[C@@H](O)[C@@H](O)N[*:3])N[*:1])[*:2]; hTyr(3S-OH,4S-OH) = N[C@H](C(=O)O)[C@H](O)[C@@H](O)c1ccc(O)cc1; Pro(3S-OH,4S-Me) = C[C@H]1CN[C@H](C(=O)O)[C@H]1O; Hyp = O=C(O)[C@@H]1C[C@@H](O)CN1

Tests used:
Type in all cases: biochemical
Conditions in all cases: FDA-approved drug screen; compared to DMSO
recombinant PRL-1 = molecular target: T1, recombinant PRL-1 (Homo sapiens, UniProt Q93096); assay: In vitro phosphatase assay (DiFMUP hydrolysis), PRL-1; also: test concentration or dose not given here
T1 construct: 6xHis (N, cleaved yes); made in house; host or cells: E. coli One Shot BL21 Star
T1 sequence (Q93096 1-173): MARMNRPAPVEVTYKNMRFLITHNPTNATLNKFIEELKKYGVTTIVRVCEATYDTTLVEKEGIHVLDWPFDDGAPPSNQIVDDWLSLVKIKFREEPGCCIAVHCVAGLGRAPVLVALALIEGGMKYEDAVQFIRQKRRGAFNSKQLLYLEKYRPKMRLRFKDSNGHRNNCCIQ

recombinant PRL-2 = molecular target: T2, recombinant PRL-2 (Homo sapiens, UniProt Q12974); assay: In vitro phosphatase assay (DiFMUP hydrolysis), PRL-2;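 also: PRL-2 activity read as DiFMUP hydrolysis after 20 min at room temperature with drug, enzyme first pre-reduced at 4 °C for 20 min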
T2 construct: 6xHis (N, cleaved yes); made in house; host or cells: E. coli One Shot BL21 Star
T2 sequence (Q12974 1-167): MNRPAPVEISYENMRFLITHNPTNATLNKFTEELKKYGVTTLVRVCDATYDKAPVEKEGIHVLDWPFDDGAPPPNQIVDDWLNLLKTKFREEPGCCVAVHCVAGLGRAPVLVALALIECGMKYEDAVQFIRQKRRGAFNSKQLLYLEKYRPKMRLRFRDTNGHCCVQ

recombinant PRL-3 = molecular target: T3, recombinant PRL-3 (Homo sapiens, UniProt O75365); assay: In vitro phosphatase assay (DiFMUP hydrolysis), PRL-3; also: test concentration or dose not given here
T3 construct: 6xHis (N, cleaved yes); made in house; host or cells: E. coli One Shot BL21 Star
T3 sequence (O75365 whole entry): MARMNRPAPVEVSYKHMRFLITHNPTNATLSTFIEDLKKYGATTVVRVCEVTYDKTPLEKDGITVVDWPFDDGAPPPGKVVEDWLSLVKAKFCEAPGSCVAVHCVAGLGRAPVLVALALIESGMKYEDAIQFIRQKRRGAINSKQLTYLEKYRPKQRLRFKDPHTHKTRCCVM

Row | SMILES | % Phosphatase Activity (compared to DMSO) PRL-1 (recombinant PRL-1) [%] | % Phosphatase Activity (compared to DMSO) PRL-2 (recombinant PRL-2) [%] | % Phosphatase Activity (compared to DMSO) PRL-3 (recombinant PRL-3) [%]
1 | CCCc1ncc(C[n+]2ccccc2C)c(N)n1.Cl.[Cl-] [Amprolium HCl] | 97 | 97 | 94
2 | S=C(NCc1ccc2c(c1)OCO2)N1CCN(c2ncnc3c2oc2ccccc23)CC1 [Amuvatinib (MP-470)] | 90 | 100 | 76
3 | O=C1CN2Cc3c(ccc(Cl)c3Cl)N=C2N1 [Anagrelide HCl] | 93 | 91 | 80
4 | CC(C)(C#N)c1cc(Cn2cncn2)cc(C(C)(C)C#N)c1 [Anastrozole] | 106 | 122 | 96
5 | CCCCCOc1ccc(-c2ccc(-c3ccc(C(=O)N[C@H]4C[C@@H](O)[C@@H](O)NC(=O)[C@@H]5[C@@H](O)[C@@H](C)CN5C(=O)[C@H]([C@@H](C)O)NC(=O)[C@H]([C@H](O)[C@@H](O)c5ccc(O)cc5)NC(=O)[C@@H]5C[C@@H](O)CN5C(=O)[C@H]([C@@H](C)O)NC4=O)cc3)cc2)cc1 [Anidulafungin (LY303366)] ({pTerphenylCO(4''-OnC5H11)}-[Orn(4R-OH,5R-OH)]T[Hyp][hTyr(3S-OH,4S-OH)]T[Pro(3S-OH,4S-Me)]; lactam 1-C) | 569 | 568 | 623
6 | COc1ccc(C(=O)N2CCCC2=O)cc1 [Aniracetam] | 102 | 104 | 75
7 | CCCC(CCC)C(=O)O[C@H]1C[C@H]2CC[C@@H](C1)[N+]2(C)C [Anisotropine Methylbromide] | 111 | 108 | 77
8 | c1ccc(CN(CC2=NCCN2)c2ccccc2)cc1 [Antazoline HCl] | 91 | 104 | 76
9 | Cc1cc(=O)n(-c2ccccc2)n1C [Antipyrine] | 98 | 107 | 87
10 | N#CC1(c2ccc(NC(=O)c3cccnc3NCc3ccncc3)cc2)CCCC1 [Apatinib] | 100 | 106 | 88
11 | COc1ccc(-n2nc(C(N)=O)c3c2C(=O)N(c2ccc(N4CCCCC4=O)cc2)CC3)cc1 [Apixaban] | 102 | 132 | 80
12 | CCOc1cc([C@@H](CS(C)(=O)=O)N2C(=O)c3cccc(NC(C)=O)c3C2=O)ccc1OC [Apremilast (CC-10004)] | 100 | 78 | 86
13 | C[C@@H](O[C@H]1OCCN(Cc2n[nH]c(=O)[nH]2)[C@H]1c1ccc(F)cc1)c1cc(C(F)(F)F)cc(C(F)(F)F)c1 [Aprepitant] | 104 | 94 | 80
14 | CN(C)CCOC(c1ccc(Cl)cc1)c1ccccn1.O=C(O)/C=C\C(=O)O (stereo not drawn) [ArbinoxaMine Maleate] | 100 | 77 | 91
15 | COC(=O)C1=CCCN(C)C1 [Arecoline] | 98 | 131 | 84
16 | CC1CNc2c(cccc2S(=O)(=O)N[C@@H](CCCNC(=N)N)C(=O)N2CC[C@@H](C)C[C@@H]2C(=O)O)C1 (stereo partly drawn) [Argatroban] | 104 | 100 | 80
17 | O=C1CCc2ccc(OCCCCN3CCN(c4cccc(Cl)c4Cl)CC3)cc2N1 [Aripiprazole] | 100 | 111 | 103
18 | NC(=O)C[S@@+]([O-])C(c1ccccc1)c1ccccc1 [Armodafinil] | 94 | 90 | 73
19 | CO[C@H]1O[C@@H]2O[C@@]3(C)CC[C@H]4[C@H](C)CC[C@@H]([C@H]1C)[C@@]24OO3 [Artemether] | 87 | 96 | 85

Row | SMILES | % Phosphatase Activity (compared to DMSO) PRL-1 (recombinant PRL-1) [%] | % Phosphatase Activity (compared to DMSO) PRL-2 (recombinant PRL-2) [%] | % Phosphatase Activity (compared to DMSO) PRL-3 (recombinant PRL-3) [%]
20 | C[C@@H]1CC[C@H]2[C@@H](C)C(=O)O[C@@H]3O[C@@]4(C)CC[C@@H]1[C@]32OO4 [Artemisinin] | 100 | 90 | 80
21 | CCCNC(C)C(=O)Nc1c(C)csc1C(=O)OC (stereo not drawn) [Articaine HCl] | 110 | 109 | 84
22 | CN1CC2c3ccccc3Oc3ccc(Cl)cc3C2C1 (stereo not drawn) [Asenapine] | 98 | 107 | 79
23 | COC(=O)[C@H](Cc1ccccc1)NC(=O)[C@@H](N)CC(=O)O [Aspartame] (H-Asp-Phe-OMe) | 92 | 95 | 85
24 | CC(=O)Oc1ccccc1C(=O)O [Aspirin] | 126 | 110 | 102
25 | COC(=O)N[C@H](C(=O)N[C@@H](Cc1ccccc1)[C@@H](O)CN(Cc1ccc(-c2ccccn2)cc1)NC(=O)[C@@H](NC(=O)OC)C(C)(C)C)C(C)(C)C.O=S(=O)(O)O [Atazanavir Sulfate] | 95 | 83 | 83
26 | COC(=O)N[C@H](C(=O)N[C@@H](Cc1ccccc1)[C@@H](O)CN(Cc1ccc(-c2ccccn2)cc1)NC(=O)[C@@H](NC(=O)OC)C(C)(C)C)C(C)(C)C [Atazanavir] | 94 | 89 | 85
27 | CCC1(c2cnc[nH]2)Cc2ccccc2C1.Cl [Atipamezole hydrochloride] | 98 | 106 | 88
28 | CCC1(c2cnc[nH]2)Cc2ccccc2C1 [Atipamezole] | 94 | 109 | 87
29 | CNCC[C@@H](Oc1ccccc1C)c1ccccc1 [Atomoxetine HCl] | 98 | 109 | 89
30 | CC(C)c1c(C(=O)Nc2ccccc2)c(-c2ccccc2)c(-c2ccc(F)cc2)n1CC[C@@H](O)C[C@@H](O)CC(=O)O [Atorvastatin Calcium] | 100 | 87 | 74
31 | O=C1C(O)=C([C@H]2CC[C@H](c3ccc(Cl)cc3)CC2)C(=O)c2ccccc21 [Atovaquone] | 96 | 88 | 90
32 | COc1ccc(CC2c3cc(OC)c(OC)cc3CC[N+]2(C)CCC(=O)OCCCCCOC(=O)CC[N+]2(C)CCc3cc(OC)c(OC)cc3C2Cc2ccc(OC)c(OC)c2)cc1OC (stereo not drawn) [Atracurium Besylate] | 99 | 101 | 101
33 | NC(=O)[C@@H](CCC(F)(F)F)N(Cc1ccc(-c2ncon2)cc1F)S(=O)(=O)c1ccc(Cl)cc1 [Avagacestat (BMS-708163)] | 89 | 85 | 73
34 | COc1ccc(CN=c2[nH]c(N3CCC[C@H]3CO)ncc2C(=O)NCc2ncccn2)cc1Cl [Avanafil] | 98 | 112 | 97
35 | COc1ccc(C(=O)CC(=O)c2ccc(C(C)(C)C)cc2)cc1 [Avobenzone] | 93 | 68 | 87
36 | CNC(=O)c1ccccc1Sc1ccc2c(/C=C/c3ccccn3)n[nH]c2c1 [Axitinib] | 102 | 164 | 96
37 | Nc1ncn([C@@H]2O[C@H](CO)[C@@H](O)[C@H]2O)c(=O)n1 [Azacitidine] | 78 | 93 | 89
38 | OC(c1ccccc1)(c1ccccc1)C1CCNCC1 [Azacyclonol] | 109 | 127 | 96
